Data published in the NIST ThermoML archive (doi:10.1016/j.jct.2009.01.008).

Experiments:
[1] = 101 kPa, Liquid, Linear variable-path acoustic interferometer
[2] = refractive index (Na D-line) (dimensionless); conditions: 298.15 K; 101.33 kPa; Liquid
[3] = xn = mol fraction of the nth substance listed; conditions: 101 kPa, Liquid, Linear variable-path acoustic interferometer

CC(C)CC(C)(C)C [2,2,4-trimethylpentane]
[1]
Conditions | speed of sound [m/s]
298.15 K | 1082.8
308.15 K | 1041.1
318.15 K | 1000
328.15 K | 958.4

Conditions | refractive index
[2] | 1.38905

CC(C)CC(C)(C)C [2,2,4-trimethylpentane] + COC(C)(C)C
[3], x2 = 0
Conditions | speed of sound [m/s]
298.15 K | 1082.8
308.15 K | 1041.1
318.15 K | 1000
328.15 K | 958.4

CC(C)CC(C)(C)C [2,2,4-trimethylpentane] + Cc1ccccc1
speed of sound [m/s], [3]
Conditions | 298.15 K | 308.15 K | 318.15 K | 328.15 K
x2 = 0 | 1082.8 | 1041.1 | 1000 | 958.4
x2 = 0.07776 | 1092.7 | 1051.1 | 1009.9 | 969.3
x2 = 0.1405 | 1101.3 | 1059.7 | 1018.5 | 977.9
x2 = 0.2059 | 1110.8 | 1069.2 | 1028.1 | 987.5
x2 = 0.2671 | 1120.3 | 1078.7 | 1037.6 | 997
x2 = 0.3385 | 1132.3 | 1090.7 | 1049.5 | 1008.8
x2 = 0.3976 | 1143 | 1101.3 | 1060.1 | 1019.4
x2 = 0.4724 | – | 1115.6 | 1074.3 | –
x2 = 0.5328 | 1170 | – | 1086.9 | 1046.1
x2 = 0.5966 | 1184.2 | 1142.3 | 1100.9 | 1060
x2 = 0.6699 | 1201.9 | 1159.9 | 1118.4 | 1077.5
x2 = 0.7302 | 1217.5 | 1175.4 | – | 1092.8
x2 = 0.7895 | – | – | 1150.3 | –
x2 = 0.8001 | 1237.5 | 1195.3 | 1153.6 | 1112.4
x2 = 0.8681 | 1258.4 | 1216.1 | 1174.2 | 1132.8
x2 = 0.8691 | 1259 | – | – | –
x2 = 0.9539 | 1288.1 | 1245.4 | 1203.3 | –

COC(C)(C)C [2-methoxy-2-methylpropane]
[1]
Conditions | speed of sound [m/s]
298.15 K | 1036.4
308.15 K | 990.8
318.15 K | 945.3

Conditions | refractive index
[2] | 1.36648

COC(C)(C)C [2-methoxy-2-methylpropane] + CC(C)CC(C)(C)C
speed of sound [m/s], [3]
Conditions | 298.15 K | 308.15 K | 318.15 K | 328.15 K
x1 = 0.05551 | 1079.2 | 1037.5 | – | –
x1 = 0.08857 | 1077.1 | – | 993.7 | 952.7
x1 = 0.1305 | 1074.8 | 1032.8 | 991.2 | –
x1 = 0.1971 | 1071 | 1028.7 | 986.9 | 945.5
x1 = 0.2599 | 1067.4 | 1024.9 | 983 | 941.5
x1 = 0.3284 | 1063.8 | 1021 | 978.9 | –
x1 = 0.3315 | – | – | – | 936.4
x1 = 0.4078 | 1059.5 | 1016.4 | 973.8 | –
x1 = 0.4756 | 1056.1 | 1012.7 | – | –
x1 = 0.5629 | 1052 | 1008.2 | 964.9 | 922.2
x1 = 0.6184 | 1049.5 | – | – | –
x1 = 0.6831 | 1046.7 | 1002.5 | 958.7 | 915.2
x1 = 0.7456 | 1044.1 | 995.5 | 955.6 | –
x1 = 0.7644 | 1043.4 | – | – | –
x1 = 0.8143 | 1041.7 | – | – | –
x1 = 0.8155 | 1041.5 | 996.6 | 952.4 | –
x1 = 0.8675 | 1039.8 | 994.7 | 950 | –
x1 = 0.9376 | 1037.8 | 992.5 | 947.4 | –
x1 = 1 | 1036.4 | 990.8 | 945.3 | –

COC(C)(C)C [2-methoxy-2-methylpropane] + Cc1ccccc1
speed of sound [m/s], [3]
Conditions | 298.15 K | 308.15 K | 318.15 K | 328.15 K
x1 = 0.1021 | 1277.4 | 1234.5 | 1192 | 1149.9
x1 = 0.2035 | 1250 | 1206.7 | 1163.9 | 1121.6
x1 = 0.2591 | 1234.8 | 1191.3 | 1148.5 | 1106.1
x1 = 0.3321 | 1215.2 | 1171.6 | 1128.4 | 1086.2
x1 = 0.4008 | 1196.7 | 1152.9 | 1109.5 | 1066.9
x1 = 0.4665 | – | – | – | 1049.4
x1 = 0.5323 | – | – | – | 1030.2
x1 = 0.5894 | 1145.8 | 1101.5 | 1057.6 | –
x1 = 0.664 | 1125.8 | 1081.2 | 1037 | –
x1 = 0.7257 | – | – | 1020.4 | 976.5
x1 = 0.7956 | – | 1045.7 | 1001 | 958.4
x1 = 0.8643 | 1072.3 | 1027.1 | 982.4 | –
x1 = 0.9025 | 1062.2 | 1016.8 | 971.6 | –
x1 = 1 | 1036.4 | 990.8 | 945.3 | –

Cc1ccccc1 [toluene]
[1]
Conditions | speed of sound [m/s]
298.15 K | 1305.4
308.15 K | 1262.6
318.15 K | 1220.3
328.15 K | 1178.6

Conditions | refractive index
[2] | 1.4941

Cc1ccccc1 [toluene] + CC(C)CC(C)(C)C
[3], x1 = 1
Conditions | speed of sound [m/s]
298.15 K | 1305.4
308.15 K | 1262.6
318.15 K | 1220.3
328.15 K | 1178.6

Cc1ccccc1 [toluene] + COC(C)(C)C
[3], x2 = 0
Conditions | speed of sound [m/s]
298.15 K | 1305.4
308.15 K | 1262.6
318.15 K | 1220.3
328.15 K | 1178.6
